# Experimental data from patent US12415793B2, “Modulators of TMEM16A for treating respiratory disease” (TMEM16A Limited, priority 2020, dated 2025).
# Target: T1, human TMEM16A (TMEM16Aabc variant) (Homo sapiens, UniProt Q5XXA6, DEL476-501)
# T1 sequence (Q5XXA6 with tags, fused parts or gaps isoform Q5XXA6-5 DEL539-564): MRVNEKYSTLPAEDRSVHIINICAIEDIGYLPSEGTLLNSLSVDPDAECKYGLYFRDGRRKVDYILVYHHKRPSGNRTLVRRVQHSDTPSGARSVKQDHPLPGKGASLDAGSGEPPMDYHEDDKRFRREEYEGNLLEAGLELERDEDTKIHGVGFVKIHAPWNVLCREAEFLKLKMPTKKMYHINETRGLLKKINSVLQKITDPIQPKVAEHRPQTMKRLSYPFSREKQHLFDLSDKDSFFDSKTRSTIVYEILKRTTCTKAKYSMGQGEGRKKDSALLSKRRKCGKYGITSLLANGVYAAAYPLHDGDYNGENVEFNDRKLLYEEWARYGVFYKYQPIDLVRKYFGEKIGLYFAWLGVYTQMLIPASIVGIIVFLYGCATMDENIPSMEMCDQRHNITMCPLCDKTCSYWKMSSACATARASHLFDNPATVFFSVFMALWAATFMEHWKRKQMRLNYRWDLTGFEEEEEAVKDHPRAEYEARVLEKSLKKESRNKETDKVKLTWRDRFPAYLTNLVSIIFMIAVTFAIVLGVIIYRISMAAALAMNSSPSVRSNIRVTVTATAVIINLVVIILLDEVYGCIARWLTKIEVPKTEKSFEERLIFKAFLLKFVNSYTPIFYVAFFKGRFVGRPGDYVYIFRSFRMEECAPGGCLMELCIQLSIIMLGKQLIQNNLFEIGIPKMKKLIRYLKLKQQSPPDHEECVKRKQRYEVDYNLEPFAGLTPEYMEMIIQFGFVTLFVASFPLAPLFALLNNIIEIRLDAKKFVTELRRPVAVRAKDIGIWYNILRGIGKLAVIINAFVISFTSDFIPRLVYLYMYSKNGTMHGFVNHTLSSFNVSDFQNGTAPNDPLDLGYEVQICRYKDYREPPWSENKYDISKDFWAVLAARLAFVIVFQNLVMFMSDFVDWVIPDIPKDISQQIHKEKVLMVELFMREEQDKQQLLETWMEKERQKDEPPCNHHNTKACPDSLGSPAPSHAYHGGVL
# Assay: Automated whole-cell patch clamp (Qpatch) assay to detect TMEM16A activity in recombinant cells
# Type: cell-based
# Conditions: for activation at 3.33 µM: 3.33 μM solution of test compound, percentage increase of baseline TMEM16A current, FRT cells stably expressing human TMEM16A, intracellular calcium at EC20, +70 mV, read-out: % Potentiation @ 3.33 μM Avg; for EC50: calculated from cumulative concentration response curve, FRT-TMEM16A cells, whole-cell patch clamp (Qpatch)
# Method: Automated Whole-Cell Patch Clamp Assay to Detect TMEM16A Activity in Recombinant Cells
# Cell Culture and Preparation
# Fisher rat thyroid (FRT) cells stably expressing human TMEM16A (TMEM16Aabc variant; Dr Luis Galietta, Insituto Giannina, Italy) were cultured in T-75 flasks in Hams F-12 media with Coon's modification (Sigma) supplemented with 10% (v/v) foetal bovine serum, penicillin-streptomycin (10,000 U/mL/10000 μg/mL), G-418 (750 μg/mL), L-glutamine (2 mM) and sodium bicarbonate solution (7.5% v/v). At ˜90% confluence cells were harvested for experiments by detachment with a 2:1 (v/v) mixture of Detachin (BMS Biotechnology) and 0.25% (w/v) trypsin-EDTA. Cells were diluted to a density of 3.5-4.5×10^6 cells/mL with media consisting of CHO-S-SFM II (Sigma), 25 mM HEPES (Sigma) and Soy bean trypsin inhibitor (Sigma).
# Whole-Cell Patch Clamp Recording
# FRT-TMEM16A cells were whole-cell patch clamped using an automated planar patch clamp system (Qpatch, Sophion). Briefly, once high resistance (GOhm) seals were established between the cells and the planar recording array the patch was ruptured using suction pulses to establish the whole-cell recording configuration of the patch clamp technique. The assay employed the following solutions (all reagents Sigma): • Intracellular solution (mM): N-methyl-D-glucamine 130, CaCl2 18.2, MgCl2 1, HEPES 10, EGTA 10, BAPTA 20, Mg-ATP 2, pH 7.25, 325mOsm with sucrose. • Extracellular solution (mM): N-methyl-D-glucamine 130, CaCl2 2, MgCl2 1, HEPES 10, pH 7.3, 320 mOsm with sucrose.
# The intracellular solution buffers intracellular calcium at levels required to give ˜20% activation of the maximal TMEM16A mediated current (EC20 for calcium ions). Cells were voltage clamped at a holding potential of −70 mV and a combined voltage step (to +70 mV)/ramp (−90 my to +90 mV) was applied at 0.05 Hz. After a period of current stabilisation test compounds, solubilised in 100% (v/v) DMSO and subsequently diluted into extracellular solution, were applied to generate a cumulative concentration response curve. Each concentration of test compound was incubated for 5 minutes before addition of the next concentration. After the final concentration was tested a supramaximal concentration of either a known active positive modulator or the TMEM16A inhibitor, CaCCinhA01 (Del La Fuente et al, 2008) was added to define the upper and lower limits of the assay.
# Compound activity was quantified by measuring the increase in current upon compound addition and expressing this as a percentage increase of baseline TMEM16A current level. Percentage increases in current were determined for each concentration and the data plotted as a function of concentration using either the Qpatch software or Graphpad Prism v6.05 providing the concentration which gave 50% of its maximal effect (EC50) and maximum efficacy (percentage of baseline increase).
# In FIG. 1, IBL equals baseline current, I[#1] equals the peak current during test compound concentration 1 incubation period and so on.
# Peak TMEM16A current at +70 mV was plotted as a function of time over the assay period. Baseline current (IBL) was measured after a period of stabilisation. The increase in current for each compound addition was determined by taking the peak current during the incubation period and subtracting the current from the previous recording period and then expressing this as a percentage of the baseline current. For test compound concentration 1 in FIG. 1 this is:
# For each additional concentration tested the increase in current was determined by subtracting the current from the previous incubation period and normalising the baseline value—for test concentration 2 in FIG. 1 this is:
# The values for each test concentration were plotted as a cumulative function of concentration e.g. for test concentration two this would be the sum of the peak changes measured during concentration one plus concentration two.
structure (smiles),measurement,value
"CC(C)(C)C(=O)Nc1cccc(C(=O)NCc2cc(Cl)ccc2O)c1 [Example 2, N-[(5-Chloro-2-hydroxy-phenyl)methyl]-3-(2,2-dimethylpropanoylamino)benzamide]",activation at 3.33 µM,127%
"CC(C)(C)NC(=O)c1cc(C(=O)NCc2ccccc2O)ccn1 [Example 4, N2-tert-Butyl-N4-[(2-hydroxyphenyl)methyl]pyridine-2,4-dicarboxamide]",activation at 3.33 µM,35.2%
"CC(C)(CO)c1cc(F)c(CC(=O)Nc2ccc(C(=O)NC3(C(F)(F)F)CC3)s2)cc1O [Example 9, 5-[[2-[2-Fluoro-5-hydroxy-4-(2-hydroxy-1,1-dimethyl-ethyl)phenyl]acetyl]amino]-N-[1-(trifluoromethyl)cyclopropyl]thiophene-2-carboxamide]",activation at 3.33 µM,134%
same,EC50,0.098 µM
"CC(C)(C)NC(=O)c1cccc(C(=O)NCc2ccccc2O)c1 [Example 5, N1-tert-Butyl-N3-[(2-hydroxyphenyl)methyl]benzene-1,3-dicarboxamide]",activation at 3.33 µM,41.2%
same,EC50,2.91 µM
"CC(C)(C)NC(=O)c1cc(NC(=O)Cc2cc(Cl)ccc2O)cs1 [Example 1.2, N-tert-Butyl-4-[[2-(5-chloro-2-hydroxy-phenyl)acetyl]amino]thiophene-2-carboxamide]",activation at 3.33 µM,237%
same,EC50,0.4 µM
"O=C(Cc1cc(Cl)ccc1O)Nc1ccnc(NC(=O)C2CCCCC2)c1 [Example 7.1, N-[4-[[2-(5-Chloro-2-hydroxy-phenyl)acetyl]amino]-2-pyridyl]cyclohexane carboxamide]",activation at 3.33 µM,120%
same,EC50,1.11 µM
"CC(C)(C)NC(=O)c1ccc(NC(=O)Cc2cc(Cl)ccc2O)s1 [Example 1, N-tert-Butyl-5-[[2-(5-chloro-2-hydroxy-phenyl)acetyl]amino]thiophene-2-carboxamide]",activation at 3.33 µM,107%
same,EC50,0.042 µM
"CC(C)(C)C(=O)Nc1cccc(NC(=O)Cc2cc(Cl)ccc2O)c1 [Example 6, N-[3-[[2-(5-Chloro-2-hydroxy-phenyl)acetyl]amino]phenyl]-2,2-dimethyl-propanamide]",activation at 3.33 µM,68.1%
same,EC50,0.992 µM
"CC(C)(C)C(=O)Nc1cc(NC(=O)Cc2cc(Cl)ccc2O)ccn1 [Example 7, N-[4-[[2-(5-Chloro-2-hydroxy-phenyl)acetyl]amino]-2-pyridyl]-2,2-dimethyl-propanamide]",activation at 3.33 µM,156%
same,EC50,0.615 µM
"CC(C)(C)NC(=O)c1csc(NC(=O)Cc2cc(Cl)ccc2O)c1 [Example 1.1, N-tert-Butyl-5-[[2-(5-chloro-2-hydroxy-phenyl)acetyl]amino]thiophene-3-carboxamide]",activation at 3.33 µM,184%
same,EC50,0.44 µM
"CC(C)(C)C(=O)Nc1ccnc(C(=O)NCc2cc(Cl)ccc2O)c1 [Example 3, N-[(5-Chloro-2-hydroxy-phenyl)methyl]-4-(2,2-dimethylpropanoylamino)pyridine-2-carboxamide]",activation at 3.33 µM,81.3%
"CC(C)(C#N)NC(=O)c1ccc(NC(=O)Cc2cc(O)c(C(C)(C)C)cc2F)s1 [Example 8, 5-[[2-(4-tert-Butyl-2-fluoro-5-hydroxy-phenyl)acetyl]amino]-N-(1-cyano-1-methyl-ethyl)thiophene-2-carboxamide]",activation at 3.33 µM,134%
same,EC50,0.085 µM
